Conditions: amide bond; 28-membered ring

Substance | ring closure, isolated yield [%]
[(3R)-N^2-(Benzyloxycarbonyl)-3-amino-L-phenylalanyl]-[(3R)-3-hydroxy-L-leucyl]-L-isoleucyl-D-arginyl-L-isoleucyl-L-allothreonyl-glycyl-L-seryl-L-serine C^1.9-N^3.1-lactam trifluoroacetate | 62
[(3R)-N^2-(Benzyloxycarbonyl)-3-amino-L-phenylalanyl]-[(3R)-3-hydroxy-L-leucyl]-L-leucyl-D-arginyl-L-isoleucyl-L-allothreonyl-glycyl-[(2S)-2-amino-3-(9H-fluoren-9-ylmethoxycarbonyl)aminobutyryl]-L-serine C^1.9-N^3.1-lactam trifluoroacetate | 67
{(3R)-N^2-[(9H-Fluoren-9-ylmethoxy)carbonyl]-3-amino-L-phenylalanyl}-[(3R)-3-hydroxy-L-leucyl]-L-leucyl-[(2R)-2-amino-4-benzyloxycarbonylaminobutyryl]-L-isoleucyl-L-allothreonyl-glycyl-L-seryl-L-serine C^1.9-N^3.1-lactam trifluoroacetate | 85
{(3R)-N^2-[(9H-Fluoren-9-ylmethoxy)carbonyl]-3-amino-L-phenylalanyl}-[(3R)-3-hydroxy-L-leucyl]-L-leucyl-D-arginyl-L-isoleucyl-L-allothreonyl-glycyl-(N^5-benzyloxycarbonyl-L-ornithyl-L-serine C^1.9-N^3.1-lactam trifluoroacetate | 88
{(3R)-N^2-[(9H-Fluoren-9-ylmethoxy)carbonyl]-3-amino-L-phenylalanyl}-[(3R)-3-hydroxy-L-leucyl]-L-leucyl-(N^6-benzyloxycarbonyl-D-lysyl)-L-isoleucyl-L-allothreonyl-glycyl-L-seryl-L-serine C^1.9-N^3.1-lactam trifluoroacetate | 78
[(3R)-N^2-(Benzyloxycarbonyl)-3-amino-L-phenylalanyl]-[(3R)-3-hydroxy-L-leucyl]-L-norvalyl-D-arginyl-L-isoleucyl-L-allothreonyl-glycyl-L-seryl-L-serine C^1.9-N^3.1-lactam trifluoroacetate | 77
[(3R)-N^2-(Benzyloxycarbonyl)-3-amino-L-phenylalanyl]-[(3R)-3-hydroxy-L-leucyl]-L-leucyl-D-arginyl-L-leucyl-L-allothreonyl-glycyl-L-seryl-L-serine C^1.9-N^3.1-lactam trifluoroacetate | 87
[(3R)-N^2-(Benzyloxycarbonyl)-3-amino-L-phenylalanyl]-[(3R)-3-hydroxy-L-leucyl]-L-leucyl-D-arginyl-L-valyl-L-allothreonyl-glycyl-L-seryl-L-serine C^1.9-N^3.1-lactam trifluoroacetate | 91
[(3R)-N^2-(Benzyloxycarbonyl)-3-amino-L-phenylalanyl]-L-threonyl-L-leucyl-D-arginyl-L-isoleucyl-L-allothreonyl-glycyl-L-seryl C^1.9-N^3.1-lactam trifluoroacetate | 73
[(3R)-N^2-(Benzyloxycarbonyl)-3-amino-L-phenylalanyl]-[(3R)-3-hydroxy-L-leucyl]-L-leucyl-D-arginyl-L-isoleucyl-L-allothreonyl-glycyl-glycyl-L-serine C^1.9-N^3.1-lactam trifluoroacetate | 38
[(3R)-N^2-(Benzyloxycarbonyl)-3-amino-L-phenylalanyl]-[(3R)-3-hydroxy-L-leucyl]-L-leucyl-D-arginyl-L-isoleucyl-L-allothreonyl-D-alanyl-[(3S)-3-hydroxy-L-asparaginyl]-L-serine C^1.9-N^3.1-lactam trifluoroacetate | 48
[(3R)-N^2-(Benzyloxycarbonyl)-3-amino-L-phenylalanyl]-[(3R)-3-hydroxy-L-leucyl]-L-leucyl-D-arginyl-L-isoleucyl-L-allothreonyl-glycyl-[(3S)-3-hydroxy-L-asparaginyl]-L-alanine C^1.9-N^3.1-lactam trifluoroacetate | 93
[(3R)-N^2-(Benzyloxycarbonyl)-3-amino-L-phenylalanyl]-[(3R)-3-hydroxy-L-leucyl]-L-leucyl-D-arginyl-L-isoleucyl-L-valyl-glycyl-L-seryl-L-serine C^1.9-N^3.1-lactam trifluoroacetate | 62
[(3R)-N^2-(Benzyloxycarbonyl)-3-amino-L-phenylalanyl]-[(3R)-3-hydroxy-L-leucyl]-(3-trimethylsilyl-L-alanyl)-D-arginyl-L-isoleucyl-L-allothreonyl-glycyl-L-seryl-L-serine C^1.9-N^3.1-lactam trifluoroacetate | 98
[(3R)-N^2-(Benzyloxycarbonyl)-3-amino-L-phenylalanyl]-[(3R)-3-hydroxy-L-leucyl]-L-norvalyl-D-arginyl-L-isoleucyl-L-allothreonyl-glycyl-L-alanyl-L-serine C^1.9-N^3.1-lactam trifluoroacetate | 100
{(3R)-N^2-[(9H-Fluoren-9-ylmethoxy)carbonyl]-3-amino-L-phenylalanyl}-[(3R)-3-hydroxy-L-leucyl]-L-leucyl-D-arginyl-L-isoleucyl-L-allothreonyl-glycyl-[(2S)-2-amino-4-benzyloxycarbonylaminobutyryl]-L-serine C^1.9-N^3.1-lactam trifluoroacetate | 66
[(3R)-N^2-(Benzyloxycarbonyl)-3-amino-L-phenylalanyl]-[(3R)-3-hydroxy-L-leucyl]-L-norleucyl-D-arginyl)-L-isoleucyl-L-allothreonyl-glycyl-L-alanyl-L-serine C^1.9-N^3.1-lactam trifluoroacetate | 80
[(3R)-N^2-(Benzyloxycarbonyl)-3-amino-L-phenylalanyl]-[(3R)-3-hydroxy-L-leucyl]-L-leucyl-D-arginyl-L-isoleucyl-L-leucyl-glycyl-L-seryl-L-serine C^1.9-N^3.1-lactam trifluoroacetate | 97
[(3R)-N^2-(Benzyloxycarbonyl)-3-amino-L-phenylalanyl]-[(3R)-3-hydroxy-L-leucyl]-L-leucyl-D-arginyl-L-isoleucyl-L-allothreonyl-D-seryl-L-seryl-L-serine C^1.9-N^3.1-lactam trifluoroacetate | 93
[(3R)-N^2-(Benzyloxycarbonyl)-3-amino-L-phenylalanyl]-[(3R)-3-hydroxy-L-leucyl]-L-valyl-D-arginyl-L-isoleucyl-L-allothreonyl-glycyl-L-seryl-L-serine C^1.9-N^3.1-lactam trifluoroacetate | 100
[(3R)-N^2-(Benzyloxycarbonyl)-3-amino-L-phenylalanyl]-[(3R)-3-hydroxy-L-leucyl]-L-leucyl-D-arginyl-L-phenylalanlyl-L-allothreonyl-glycyl-L-seryl-L-serine C^1.9-N^3.1-lactam trifluoroacetate | 76
[(3R)-N^2-(Benzyloxycarbonyl)-3-amino-3-(pyridin-3-yl)-L-alanyl]-[(3R)-3-hydroxy-L-leucyl]-L-leucyl-D-arginyl-L-isoleucyl-L-allothreonyl-glycyl-[(3R)-3-hydroxy-L-asparaginyl]-L-serine C^1.9-N^3.1-lactam bis-trifluoroacetate | 61
{(3R)-N^2-[(9H-Fluoren-9-ylmethoxy)carbonyl]-3-amino-L-phenylalanyl}-[(3R)-3-hydroxy-L-leucyl]-L-leucyl-(N^5-benzyloxycarbonyl-D-ornithyl)-L-isoleucyl-L-allothreonyl-glycyl-L-seryl-L-serine C^1.9-N^3.1-lactam trifluoroacetate | 48
[(3R)-N^2-(Benzyloxycarbonyl)-3-amino-L-phenylalanyl]-[(3R)-3-hydroxy-L-leucyl]-[3-tertbutyl-L-alanyl]-D-arginyl-L-isoleucyl-L-allothreonyl-glycyl-L-seryl-L-serine C^1.9-N^3.1-lactam trifluoroacetate | 90
[(3R)-N^2-(Benzyloxycarbonyl)-3-amino-L-leucyl]-[(3R)-3-hydroxy-L-leucyl]-L-leucyl-D-arginyl-L isoleucyl-L-allothreonyl-glycyl-[(3R)-3-hydroxy-L-asparaginyl]-L-serine C^1.9-N^3.1-lactam trifluoroacetate | 53

Same assay, conditions: amide bond; 28-membered ring; HATU/NMM; DMF; 0.0 °C

Substance | ring closure, isolated yield [%]
N^2.1-(Benzyloxycarbonyl)-[(3R)-3-amino-O-methyl-L-tyrosyl)]-[(3R)-3-hydroxy-L-leucyl]-L-leucyl-D-arginyl-L-isoleucyl-L-allothreonyl-glycyl-[(3S)-3-hydroxy-L-asparaginyl]-L-serine C^1.9-N^3.1-lactam trifluoroacetate | 33
[(3R)-N^2-(Benzyloxycarbonyl)-3-amino-L-phenylalanyl]-[(3R)-3-hydroxy-L-leucyl]-L-leucyl-D-arginyl-L-isoleucyl-L-allothreonyl-glycyl-L-asparaginyl-L-serine C^1.9-N^3.1-lactam trifluoroacetate | 75
[(3R)-N^2-(Benzyloxycarbonyl)-3-amino-L-phenylalanyl]-[(3R)-3-hydroxy-L-leucyl]-L-leucyl-D-arginyl-L-isoleucyl-L-allothreonyl-glycyl-[(3S)-3-hydroxy-L-asparaginyl]-L-serine C^1.9-N^3.1-lactam trifluoroacetate | 73
[(3R)-N^2-(Benzyloxycarbonyl)-3-amino-L-phenylalanyl]-[(3R)-3-hydroxy-L-leucyl]-L-leucyl-D-arginyl-L-isoleucyl-L-allothreonyl-glycyl-L-alanyl-L-serine C^1.9-N^3.1-lactam trifluoroacetate | 77

Same assay, conditions: amide bond; 28-membered ring; HATU/NMM; DMF; 7.5 mM; 0.0 °C

Substance | ring closure, isolated yield [%]
N^2.1-(Benzyloxycarbonyl)-[(3S)-3-amino-O-methyl-D-tyrosyl)]-[(3R)-3-hydroxy-L-leucyl]-L-leucyl-D-arginyl-L-isoleucyl-L-allothreonyl-glycyl-[(3S)-3-hydroxy-L-asparaginyl]-L-serine C^1.9-N^3.1-lactam trifluoroacetate | 96

Source: US8076285B2, “Lysobactin amides” (Aicuris GmbH & Co. KG, priority 2006, dated 2011)
